Where a SMILES comes first, the peptide text is derived from it. Where no end group is shown, it is not given here. The star is where a group is joined. X1 = CN(C)c1ccc2c(c1)Oc1cc(N(C)C)ccc1C21OC(=O)c2ccc(C(=O)*)cc21; TMR = fluorophore attached at the N-terminus

Holding throughout (format): cell-based, human
For series [1], the system named is primary chondrocytes from articular cartilage of patients with OA. Nature of the series: MTT cell viability assay to study toxicity. The note with it: 1-10-60-600 μM, 16 hours, with respect to untreated cells. On the procedure: FIG. 2. Cell viability assay to study toxicity. A MTT viability assay was carried out in primary chondrocytes from articular cartilage of patients with OA treated with increasing concentrations of the peptide 8Arg-YSA1 (1-10-60-600 μM, with the octaarginine sequence and the TMR), for 16 hours.
An initial number of cells (5,000-10,000) were seeded in a 96-well culture plate and treated with different concentrations of the peptides. After the treatment, the medium was removed from each well and 10 μL of the MTT reagent was added to 100 μL of fresh medium and incubated at 37° C. for 4 hours. To solubilize the formazan crystals of the MTT reagent, it was incubated with DMSO at room temperature and under stirring for 30 minutes. Absorbance was measured at 570 nm in a plate reader (Nanoquant Infinite M200, TECAN).
Such as it is explained in FIG. 2, a MTT viability assay was carried out on primary chondrocytes from articular cartilage of patients with OA treated with increasing concentrations of the peptide 8Arg-YSA1 (1-10-60-600 μM, with the arginine sequence and the TMR), for 16 hours.

The test system of series [2] is Cx43 in OA chondrocytes. Put plainly: Western-blot of Cx43 levels. The note with it: 16 hours, vs untreated (UT). The text has this:
(§1) FIG. 4. Decrease in Cx43 levels in chondrocytes from patients with OA treated with peptides YSA1, YTP1 and TUB1. […] The decrease in the levels and activity of Cx43 activates the re-differentiation of the chondrocyte and decreases the accumulation of senescent cells, restoring the adult chondrocyte phenotype and tissue regeneration capacity. […] The results obtained were confirmed by western-blot using α-tubulin as loading control. […] (d) Chondrocytes isolated from donors with osteoarthritis were treated for 16 hours with the YTP1 peptide (150 μM) and the Cx43 levels were analysed by western blot, using α-tubulin as loading control. […] (e) Chondrocytes isolated from donors with OA were treated for 16 hours with the 8Arg-YSA1 peptide (5 μM) and the Cx43 levels were analysed by western blot, using α-tubulin as loading control. […] (g) Chondrocytes isolated from donors with OA were treated for 16 hours with the TUB1 peptide (5 μM) and the Cx43 levels were analysed by western blot, using the intensity of the Ponceau stain as loading control.
The cell pellet isolated from patients with OA and treated with the peptides or untreated were mechanically and chemically lysed using a needle of 29 gauges (BD Medical) in the presence of a cold lysis buffer (50 mM Tris HCl pH 7.5; 50 mM EDTA pH 8, 0.5% NP-40, 1% Triton X-100, 150 mM NaCl). Once the cell extracts were obtained, they were diluted in loading buffer (10% SDS, 200 mM Tris HCl pH 6.8, 50% glycerol, 0.1% Bromophenol Blue, 10% […]). Equal amounts of the cell extracts were separated on a 10% Acrylamide/Bisacrylamide (Acr/Bis) gel with SDS. The proteins were subsequently transferred to a polyvinylidene fluoride membrane (PVDF, Merck) in a Trans-Blot® SD Semi-Dry Transfer Cell (Bio-Rad). It was verified that the transfer was correct by staining the membrane with ATX Ponceau S (Sigma-Aldrich). To block possible nonspecific binding with the membrane, 1-hour incubation was performed at room temperature with a 5% milk solution in a TTBS buffer (20 mM Tris, 150 mM NaCl, 0.05% Tween-20). […]

In series [3] the test system is Cx43 in OA chondrocytes. Nature of the series: Immunofluorescence for the detection of Cx43. The note with it: 200 μM, against untreated (UT) cells.
From the text: as §1
Primary cultures of chondrocytes at a confluence of 70-80% were treated with mimetic peptides of Cx43, and fixed with 2-4% paraformaldehyde (PFA, Sigma-Aldrich) in phosphate buffered saline (PBS, MP Biomedicals) for 10 minutes at room temperature. […]

The subject of series [4] is gap junctions (GJs) formed by Cx43 in OA chondrocytes. Nature of the series: Scrape Loading/Dye Transfer (SL/DT) assay. Conditions: 150 μM, 16 hours, vs untreated (UT). The procedure:
FIG. 5. Peptides YSA1 and YTP1 decrease intercellular communication through gap junctions (GJs) formed by Cx43 in OA chondrocytes. (a) Scrape Loading/Dye Transfer (SL/DT) assay in which the transfer of Lucifer Yellow (LY) fluorophore between contact chondrocytes through GJs is studied.
Cells were seeded in culture plates to an approximate 90% confluence. After treating the cells with the peptides, the medium was removed and washed twice with PBS. The fluorescent compound Lucifer Yellow (LY, Cell Projects Ltd © Kent) 0.4% in PBS was added and two cuts were made, one with a scalpel and the other with a needle on the cell monolayer. The cells were incubated for 5-7 minutes at 37° C. to allow the transfer of the LY between undamaged cells in contact, after which the LY was removed, and cells were washed with PBS. The cells were fixed with 4% formaldehyde for 10 minutes. The visualization was performed in an inverted fluorescence microscope (Inverted Research Microscope Eclipse Ti, Nikon).
A Scrape Loading/Dye Transfer (SL/DT) test was performed in which the transfer of Lucifer Yellow fluorophore (LY) between contact chondrocytes through GJs was studied.

Setting [5] is: 150 μM, α-tubulin loading control.

Regarding `CC(C)C[C@H](NC(=O)[C@H](C)NC(=O)CNC(=O)[C@H](CO)NC(=O)[C@@H](NC(=O)[C@H](C)NC(=O)[C@H](Cc1c[nH]cn1)NC(=O)[C@H](Cc1ccc(O)cc1)NC(=O)[C@@H]1CCCN1C(=O)[C@H](CC(=O)O)NC(=O)[C@H](CO)NC(=O)[C@H](CCCCN)NC(=O)CNC(=O)[C@H](CCCNC(=N)N)NC(=O)[C@H](CCCNC(=N)N)NC(=O)[C@H](CCCNC(=N)N)NC(=O)[C@H](CCCNC(=N)N)NC(=O)[C@H](CCCNC(=N)N)NC(=O)[C@H](CCCNC(=N)N)NC(=O)[C@H](CCCNC(=N)N)NC(=O)[C@H](CCCNC(=N)N)NC(=O)c1ccc2c(c1)C1(OC2=O)c2ccc(N(C)C)cc2Oc2cc(N(C)C)ccc21)[C@@H](C)O)C(=O)N[C@@H](CO)C(=O)N1CCC[C@H]1C(=O)N[C@@H](C)C(=O)N[C@@H](CCCCN)C(=O)N[C@@H](CC(=O)O)C(=O)O` [8Arg-YSA1] (X1-RRRRRRRRGKSDPYHATSGALSPAKD-OH), in series [1], the “cell viability (MTT)” value is listed as “did not affect cell viability”.
As for “Nt-FKGVKDRVKGK-Ct ({TMR}-FKGVKDRVKGK) [TUB1, TMR-labelled]”, the “Cx43 levels (western blot)” value in the series on Cx43 in OA chondrocytes [2] (5 μM, Ponceau stain loading control) is reported as “reduced the Cx43 levels”.
Turning to “Nt-GKSDPYHATSGALSPAKD-Ct ({TMR}-GKSDPYHATSGALSPAKD) [YSA1, residues 242-259 of the C-terminal domain of Cx43; labelled at N-terminus with TMR fluorophore]”, the “positivity for Cx43 (immunofluorescence)” value in the series on Cx43 in OA chondrocytes [3] is “decrease in positivity”. For the same molecule, in series [4], the “cell coupling through GJs (Lucifer Yellow transfer)” value was “decrease in cell coupling”. For the same molecule, the “Cx43 levels (western blot)” value in the series with Cx43 in OA chondrocytes [2] (setting [5]) is on record as “significantly reduced the levels of Cx43”.
For “Nt-GKSDPYHATTGPLSPAKD-Ct ({TMR}-GKSDPYHATTGPLSPAKD) [YTP1, TMR-labelled]” the same measures were “decrease in positivity”, “decreased cell coupling” and “reduced the levels of Cx43”.

Values taken from US20240287134A1, “PEPTIDES FOR USE AS SENOTHERAPEUTIC AGENTS” (FUNDACIÓN PROFESOR NOVOA SANTOS, priority 2019, published 2024).
